The values below come from article PMC9057582, “HIF inhibitor 32-134D eradicates murine hepatocellular carcinoma in combination with anti-PD1 therapy” (The Journal of Clinical Investigation, 2022).

Read-outs that look alike come from different tables or passages of the source. Where a SMILES comes first, the peptide text is derived from it. The star is where a group is joined. Cbz = O=C(OCc1ccccc1)*

The subject of data set [1] is HIF transcriptional activity. Put plainly: HIF-dependent luciferase reporter assay (FLuc/RLuc ratio) in Hep3B-c1 cells. It is filed as cell-based. Particulars: Homo sapiens, 1% O2, 24 hours, read-out: IC50, inhibition of HIF-dependent reporter gene expression. The source says:
The NCI CellMiner database contains expression data for over 25,000 mRNAs in 60 human cancer cell lines that have been exposed to more than 20,000 chemical compounds ([49]). We searched CellMiner for a compound that induced changes in gene expression that were highly correlated with those induced by acriflavine, but which was structurally unrelated to acriflavine. Compounds that satisfied the above criteria were identified and subsequently analyzed in Hep3B-c1 cells ([50]), which are stably transfected with HIF-dependent reporter plasmid p2.1, in which firefly luciferase (FLuc) coding sequences are located downstream from a hypoxia-response element (HRE) and a basal SV40 promoter; and control reporter pSVR, in which Renilla luciferase (RLuc) coding sequences are downstream of the basal SV40 promoter only (Figure 1A). The FLuc/RLuc ratio in cells exposed to 1% O2 for 24 hours is a specific measure of HIF-dependent gene expression.
Figure 1 Identification of HIF inhibitors. (A) Hep3B-c1 cells were stably transfected with firefly luciferase (FLuc) reporter p2.1, which contains a hypoxia-response element (HRE), and Renilla luciferase (RLuc) reporter pSVR. (B) Hep3B-c1 cells were incubated with vehicle (Veh; 0.1% DMSO; blue bars) or 10 μM 32-134D (red bars) at 20% O2 (n = 6) or 1% O2 (n = 12) for 24 hours. Cell lysates were assayed for Fluc/Rluc activity (mean ± SEM); *P < 0.05 versus vehicle (χ^2 test). (C) Chemical structures and IC50 values for HIF inhibitors. (D and E) Hep3B cells were exposed to 20% O2 with vehicle, or 1% O2 with vehicle (blue bar), 32-134D (red bars), 33-063 (green bars), or PT2385 (brown bars) for 24 hours and CA9 (D) and EPO (E) mRNAs were quantified by RT-qPCR. […] (F) Hep3B cells were exposed to 20% or 1% O2 in the presence of vehicle or 1% O2 in the presence of 5 μM 32-134D (n = 3 each) for 24 hours. […]
Hep3B-c1 cells ([50]) were seeded on 24-well plates. […] FLuc/RLuc ratios were determined using the Dual Luciferase Reporter Assay System (Supplemental Table 6) and the VICTOR Nivo plate reader (PerkinElmer).
For orientation: A reporter such as luciferase makes a cellular process visible.

For data set [2], the system named is HIF target genes in Hep3B cells. The experiment in a line: RT-qPCR of endogenous HIF target gene expression in Hep3B cells. It is filed as cell-based, human. The following applies: Hep3B cells, 1% O2, 24 hours. The source says: Based on this hit, we synthesized analogs in which either halogen substitutions to the indole groups were altered or the central thiazole was replaced by imidazole, isoxazole, oxadiazole, oxazole, pyrazinone, pyridazine, pyrazine, pyrazole, pyridine, thiadiazole, triazine, or triazole. […] We focused on analyzing the effect of the bis-bromoindole thiazole 32-134D and the bis-indole thiadiazole 33-063 on endogenous HIF target gene expression in Hep3B cells. […] For comparison, we tested the effect of PT2385, which inhibited EPO, NDRG1, ANGPTL4, and VEGFA expression but had no effect on CA9, which is consistent with its HIF-2–selective mechanism of action ([44]). None of the compounds had any effect on RPL13A expression, which is neither induced by hypoxia nor regulated by HIFs (Supplemental Figure 2D).
Human Hep3B and mouse Hepa1-6 cells were purchased from ATCC and grown in high-glucose (4.5 mg/mL) Dulbecco’s modified Eagle’s medium supplemented with 10% (vol/vol) fetal bovine serum and 1% penicillin/streptomycin at 37°C in a 5% CO2/95% air incubator (Supplemental Table 6). Human cell line identity was authenticated by analysis of short tandem repeats, and all cell lines were maintained mycoplasma free, using PCR-based assays conducted at the Johns Hopkins University Genetic Resources Core Facility (JHU GRCF). Cells were subjected to hypoxia in a controlled atmosphere chamber (PLAS Labs) with ambient gas mixture containing 1% O2 and 5% CO2.
(§1) RNA was extracted using TRIzol Reagent. Quantitative real-time PCR was conducted using SYBR Green PCR Master Mix and reactions were run using a Bio-Rad thermal cycler. Primer sequences and reagent sources are listed in Supplemental Table 5. The mRNA expression of target genes was normalized to the expression of 18S rRNA and the fold change (FC) was calculated based on the threshold cycle (Ct) as FC = 2^–Δ(ΔCt), where ΔCt = Cttarget gene – Ct18S rRNA and Δ(ΔCt) = ΔCttreatment – ΔCtcontrol. For RNA-seq, total RNA was isolated and treated with DNase (Qiagen). The JHU GRCF High-Throughput Sequencing facility prepared libraries and performed RNA-seq. The RNA-seq data were processed and interpreted using Genialis Expressions software (https://www.genialis.com/expressions/). An automated data analysis pipeline run in the Genialis platform consisted of the following: Sequence quality checks were performed on raw and trimmed reads with FastQC. Bbduk was used to trim adapters and filter out poor quality reads. Trimmed reads were then mapped to the STAR index (ENSEMBL 100) reference genome using the STAR ([93]) aligner. Gene expression levels were quantified with featureCounts ([94]), and differential gene expression analyses were performed with DESeq2 ([95]). […] Differential expression was determined with an FDR of less than 0.05 and mRNA FC of greater than 1.5 to identify hypoxia-induced genes and genes inhibited by 32-134D. Data used in this study have been deposited in the NCBI Gene Expression Omnibus database (GEO GSE195997).
Supplemental Figure 2. Effect of 32-134D on gene expression in Hep3B cells. (A-D) Hep3B cells were exposed to 20% O2 in the presence of vehicle (first bar; no fill) or 1% O2 in the presence of: vehicle (blue bar) or the indicated concentration of 32-134D (bars with red fill) or 33-063 (bars with green fill), or PT2385 (bars with brown fill) for 24 hours and the indicated mRNAs were quantified by reverse transcription and quantitative real-time PCR (qPCR). Data are presented as mean + SEM (n = 3). *p < 0.05 vs white; **p < 0.01 vs blue (ANOVA with Bonferroni post-test). […]
(G-H) Analysis of HIF-1a (G) and HIF-2a (H) […]
mRNA expression in Hep3B cells exposed to vehicle or 32-134D at 20% or 1% O2 for 24
(In general: Real-time PCR tracks product formation cycle by cycle.)

The subject of the next data set is Hepa1-6 mouse HCC cells. Put plainly: RT-qPCR of hypoxia-induced gene expression in Hepa1-6 cells. It is filed as cell-based. Particulars: Hepa1-6, 1% O2, 24 hours. On the procedure:
Next, we analyzed Hepa1-6, which is a mouse HCC cell line. […] CXCL1, IL-6, and IL-10 were not induced by hypoxia, whereas hypoxia-induced IL-22 expression was inhibited by 32-134D (P < 0.05; Figure 3C).
Figure 3 Effect of 32-134D treatment on hypoxia-induced gene expression in Hepa1-6 cells. (A–C) Cells were exposed to 20% O2 and vehicle (white bars), 1% O2 and vehicle (blue bars), or 1% O2 and 32-134D (red bars) for 24 hours and mRNAs were quantified by RT-qPCR and normalized to white (mean ± SEM, n = 4). *P < 0.05 versus white; ^#P < 0.05 versus blue (ANOVA with Bonferroni’s post hoc test).
as §1
Supplemental Figure 7. Effect of 32-134D on gene expression in Hepa1-6 cells. Cells were exposed to 20% O2 and vehicle (white bar) or 1% O2 and vehicle (blue bar), 2.5-10 […]
for 24 hours and mRNAs were quantified by RT-qPCR and normalized to white (mean + SEM, n = 4). *p < 0.05 vs white; #p < 0.05 vs blue (ANOVA with Bonferroni post-test).
(1 picture or pasted object on this page, not shown here)

Data set [3] relates to HIF-1α and HIF-2α protein. Put plainly: Immunoblot of nuclear extracts of Hep3B cells. It is filed as cell-based, human. The following applies: 5 μM MG132 during last 8 hours, 5 μM 32-134D. On the procedure:
Figure 1 Identification of HIF inhibitors. (A) Hep3B-c1 cells were stably transfected with firefly luciferase (FLuc) reporter p2.1, which contains a hypoxia-response element (HRE), and Renilla luciferase (RLuc) reporter pSVR. (B) Hep3B-c1 cells were incubated with vehicle (Veh; 0.1% DMSO; blue bars) or 10 μM 32-134D (red bars) at 20% O2 (n = 6) or 1% O2 (n = 12) for 24 hours. Cell lysates were assayed for Fluc/Rluc activity (mean ± SEM); *P < 0.05 versus vehicle (χ^2 test). (C) Chemical structures and IC50 values for HIF inhibitors. (D and E) Hep3B cells were exposed to 20% O2 with vehicle, or 1% O2 with vehicle (blue bar), 32-134D (red bars), 33-063 (green bars), or PT2385 (brown bars) for 24 hours and CA9 (D) and EPO (E) mRNAs were quantified by RT-qPCR. […] (F) Hep3B cells were exposed to 20% or 1% O2 in the presence of vehicle or 1% O2 in the presence of 5 μM 32-134D (n = 3 each) for 24 hours. RNA sequencing identified genes with hypoxia-induced expression (blue circle) and genes that were inhibited by 32-134D (orange circle), based on FDR < 0.05 and fold change > 1.5. (G) Hep3B cells were exposed to 20% or 1% O2 for 24 hours in the presence of vehicle or 5 μM 32-134D, nuclear extracts were prepared, and immunoblot assays were performed. […]
A general note: Immunoblotting shows a protein as a band on a membrane.

Data set [4] concerns HIF-1, HIF-2 and p300 recruitment to HREs. The experiment in a line: ChIP-qPCR of HRE occupancy in Hep3B cells. In kind it is cell-based, human. Particulars: 16 hours, 5 µM 32-134D or 10 µM PT2385. On the procedure: Coadministration of the proteasome inhibitor MG-132 blocked the effect of 32-134D on HIF-1α protein levels (Figure 1H). […] Taken together, the results presented in Figure 1 and Supplemental Figures 1–3 indicate that 32-134D induces HIF-α subunit degradation, thereby inhibiting activation of HIF-1 and HIF-2 target gene transcription.
Cells were seeded overnight and then exposed to 20% or 1% O2 in the presence of compound or vehicle for 16 hours. Protein was cross-linked to DNA by addition of 37% formaldehyde to culture medium for 10 minutes at 37°C and quenched by addition of 0.1 M glycine. Cells were washed with and collected in 5 mL of cold PBS containing PIs. Cells were pelleted and resuspended in 200 μL of SDS lysis buffer (50 mM Tris-HCl [pH 8.1], 10 mM EDTA, 1% SDS) containing PIs and incubated on ice for 10 minutes. Lysates were sonicated to produce DNA fragments ranging from 200 to 900 bp and centrifuged for 10 minutes at 4°C. Supernatants were collected and diluted 10-fold with dilution buffer (16.7 mM Tris-HCl [pH 8.1], 167 mM NaCl, 1.2 mM EDTA, 0.01% SDS, 1.1% Triton X-100) with PIs, precleared with 20 μL of salmon sperm DNA/protein A agarose slurry, and a 20-μL aliquot was reserved as input control. Antibody (2 μg; see Supplemental Table 6) was added and samples were rotated overnight at 4°C. Immune complexes were precipitated with 50 μL of salmon sperm DNA/protein A agarose slurry. Pelleted beads were washed serially using low-salt wash buffer (20 mM Tris-HCl [pH 8.1], 150 mM NaCl, 2 mM EDTA, 0.1% SDS, 1% Triton X-100); high-salt wash buffer (20 mM Tris-HCl [pH 8.1], 500 mM NaCl, 2 mM EDTA, 0.1% SDS, 1% Triton X-100); LiCl wash buffer (10 mM Tris-HCl [pH 8.1], 0.25 M LiCl, 1% Nonidet P-40, 1% deoxycholate, 1 mM EDTA); and TE buffer (10 mM Tris-HCl [pH 8.1], 1 mM EDTA). Elution buffer (1% SDS, 0.1 M NaHCO3) was added and eluates were heated at 65°C overnight to reverse cross-linking. Eluates were treated with proteinase K for 1 hour at 45°C and DNA was purified by extraction in phenol/chloroform/isoamyl alcohol (25:24:1, v/v/v) and isopropanol precipitation. […]

For data set [5] the following is noted: cited from earlier work.
The mark [6] stands for this setting: von Hippel-Lindau syndrome patients.

As usually defined, the IC50 is the concentration that gives 50% inhibition. Turning to `Brc1ccc2c(-c3nc(-c4c[nH]c5ccc(Br)cc45)cs3)c[nH]c2c1` [Compound 11-88, reference compound], the half-maximal inhibitory concentration (IC50) in data set [1] was 2.9 µM.
As to `c1ccc2c(-c3nsc(-c4c[nH]c5ccccc45)n3)c[nH]c2c1` [Compound 33-063], the 50% inhibitory concentration (IC50) in data set [1] was determined as 2.2 µM. In addition, in data set [2], the “hypoxia-induced ANGPTL4, VEGFA, NDRG1 and EPO mRNA expression” value is listed as “significantly inhibited”; the “hypoxia-induced CA9 mRNA expression (activated by HIF-1 only)” value was “significantly inhibited”. In addition, the “RPL13A mRNA expression” value in the data set with Hepa1-6 mouse HCC cells is reported as “no effect”. Moreover, in the data set on Hepa1-6 mouse HCC cells (2.5-10 µM), the “hypoxia-induced ANGPTL4, EPO, PGF, and VEGFA mRNA expression” value is on record as “significant dose-dependent inhibition”.
On to `CC(C)C[C@@H](C=O)NC(=O)[C@H](CC(C)C)NC(=O)[C@H](CC(C)C)NC(=O)OCc1ccccc1` [MG-132, reference compound] (Cbz-Leu-Leu-Leu-aldehyde), for which the “effect of 32-134D on HIF-1α protein levels on coadministration” value in data set [3] is given as “blocked”.
In the case of `CS(=O)(=O)c1ccc(Oc2cc(F)cc(C#N)c2)c2c1[C@H](O)C(F)(F)C2` [PT2385, reference compound], in data set [2], the “hypoxia-induced ANGPTL4, VEGFA, NDRG1 and EPO mRNA expression” value is recorded as “inhibited”; the “hypoxia-induced CA9 mRNA expression (activated by HIF-1 only)” value is reported as “no effect”. Also, in data set [4], the “hypoxia-induced recruitment of HIFs and p300 to EPO and ANGPTL4 HREs” value is “inhibited”. The “ANGPTL4, PGF, and VEGFA mRNA expression, potency compared with 32-134D and 33-063” value with Hepa1-6 mouse HCC cells (5-10 µM) is “less potent inhibitor”. In addition, the “patients with grade 3 anemia” value in data set [5] (phase I trial) is listed as 10%.
On to `CS(=O)(=O)c1ccc(Oc2cc(F)cc(C#N)c2)c2c1[C@H](O)[C@H](F)[C@@H]2F` [belzutifan/PT2977], for which, in data set [5] (setting [6]), the “patients with decreased blood hemoglobin levels” value is recorded as 90% and the “patients with grade 3 anemia” value is given as 7%.
